Experimental data published in patent US20260137714A1, “METHODS AND COMPOSITIONS FOR TREATMENT OF OPHTHALMIC DISEASE” (Design Therapeutics, Inc., priority 2022, published 2026).

Key:
[1] = Compound solubility in water using in situ salt formation with aqueous HCl; type: physicochemical; conditions: for Result: appearance at the final concentration; for solubility: aqueous buffer, thermodynamic from solid, water with aqueous HCl, in situ salt formation, started at 10 mg/ml, minimum tested 1 mg/ml, read-out: Final Concentration; for pH: pH of the solution at the end of the experiment, before any aq. NaOH; for pH after aq. NaOH: pH of the solution after adjustment with aq. NaOH
Procedure: To determine solubility of candidate compounds, solubility of the compounds was determined at a concentration of 10 mg/ml using in situ salt formation with aqueous HCl. First, 0.5 ml of sterile water was added to 10 mg of dry compound, vortexed, and briefly centrifuged. Next, 0.5 equivalents of 0.025 M HCl were added to the mixture followed by a volume of water that totaled 1 ml. The mixture was stirred continuously for 0.5 to 24 h. […] If the solution was not clear, additional water and/or HCl was added, along with continuous stirring and vortexing until it was determined that the compound had completely dissolved or was refractory to dissolution. The minimum concentration tested was 1 mg/ml. pH values were assessed at the end of the experiment.

[2] = tested on: Immortalized Fuchs endothelial corneal dystrophy cells (F35T); assay: In vitro foci assay (nuclear foci by FISH with (CAG)10-Cy3 oligonucleotide); type: cell-based; conditions: 48 h treatment, 3000 to 1 nM
Procedure: Immortalized Fuchs endothelial corneal dystrophy cells (F35T) were seeded in black-sided clear-bottomed 96 well plates at 5000 cells per well 16 hours prior to compound treatment. Compounds were dissolved in DMSO to 1 mM and diluted to a final concentration of 3000 to 1 nM in F35T cell culture media. Diluted compounds were added to the F35T cells and incubated for 48 h.
Following treatment, cells were fixed in 4% paraformaldehyde for 20 min, washed twice with PBS, and permeabilized with 70% ethanol at −20 deg C. for 16 h. Following permeabilization, cells were washed twice with PBS then hydrated with 30% formamide plus 2×SSC buffer for 10 min. Nuclear foci were labeled using fluorescent in situ hybridization with a (CAG)10-Cy3 oligonucleotide. Images were collected and automated image analysis was performed on a BioTEK Cytation 5.

[3] = Ex vivo bovine eye penetration of compounds formulated in water; type: in vitro ADME; conditions: for Cornea, R1 / Descemet Membrane/endothelial cells, R1: bovine eye, 30 min at room temperature, LC-MS, replicate R1
Procedure: Freshly enucleated bovine eyes (Nebraska Scientific) were treated with compound as described previously (Luschmann et al., “Developing an in situ nanosuspension: a novel approach towards the efficient administration of poorly soluble drugs at the anterior eye”, European Journal of Pharmaceutical Sciences (2013)). Individual eyes were rinsed with 10 mL of sterile 0.9% saline then placed in the bottom of a 600 mL glass beaker (Pyrex). A borosilicate glass powder funnel with a 26 mm diameter stem (Eisco Labs) was gently rested on top of the eye with the cornea centered in the cylindrical opening, creating a sealed dosing chamber in which solutions were applied. Eyes were equilibrated in sterile 0.9% saline at room temperature for 20 min then decanted. 500 μL of 0.1 to 0.3% GeneTAC compound was applied to the cornea followed by 167 μL of sterile water to mimic the instillation a 30 μL eye drop into 10 μL of tear fluid. Compound was incubated for 30 min at room temperature after which the funnel was removed. Next, eyes were washed twice with 10 ml of 5.2% aqueous mannitol solution to remove residual compound. Aqueous humor was recovered using a 28-gauge needle and snap frozen in liquid nitrogen. The cornea was then surgically excised, and the Descemet membrane and corneal endothelium (DM/CE) were removed with fine forceps under a dissecting microscope and snap frozen in liquid nitrogen. Compound abundance was quantified in aqueous humor, anterior cornea, and DM/CE using liquid chromatography-mass spectrometry.

Row | Result [1] | solubility [1] [µg/mL] | pH [1] | Cornea, R1 [3] [nM] | Descemet Membrane/endothelial cells, R1 [3] | pH after aq. NaOH [1] | Compound | IC50 [2] [nM] | Concentrations reached in corneal epithelium and stroma and in Descemet membrane and endothelium, relative to IC50 ([3]; FIG. 1, ex vivo bovine eye distribution)
1 | Clear solution | ≥ 10000 | 2.14 |  |  |  | Cn1cc(NC(=O)c2nccn2C)cc1C(=O)NCCC(=O)Nc1cn(C)c(C(=O)Nc2cc(C(=O)NCC[C@@H](N)C(=O)Nc3cn(C)c(C(=O)NCCC(=O)Nc4cc(C(=O)Nc5cn(C)c(C(=O)NCCC(=O)N6CCC(C#CC#CC7CCNCC7)CC6)n5)n(C)c4)n3)n(C)c2)n1 [Compound 210] | 715 | 
2 | Clear solution | ≥ 10000 | 2.21 |  |  |  | CN1CCN(C(=O)CCNC(=O)c2nc(NC(=O)c3cc(NC(=O)CCNC(=O)c4nc(NC(=O)[C@H](N)CCNC(=O)c5cc(NC(=O)c6nc(NC(=O)CCNC(=O)c7cc(NC(=O)c8nccn8C)cn7C)cn6C)cn5C)cn4C)cn3C)cn2C)CC1 [Compound 209] | 1650 | 
3 | Clear solution | ≥ 10000 | 2.14 |  |  |  | CN(C)CCCCNC(=O)c1nc(NC(=O)c2cc(NC(=O)CCNC(=O)c3nc(NC(=O)[C@H](N)CCNC(=O)c4cc(NC(=O)c5nc(NC(=O)CCNC(=O)c6cc(NC(=O)c7nccn7C)cn6C)cn5C)cn4C)cn3C)cn2C)cn1C [Compound 211] | 1640 | 
4 | Clear solution | ≥ 10000 | 6.04 | 798 | 46 nM |  | COCCOCCOCCOCCN(CCCNC(=O)c1nc(NC(=O)c2cc(NC(=O)CCNC(=O)c3nc(NC(=O)CCCNC(=O)c4cc(NC(=O)c5nc(NC(=O)CCNC(=O)c6cc(NC(=O)c7nccn7C)cn6C)cn5C)cn4C)cn3C)cn2C)cn1C)CCOCCOCCOCCOC [Compound 201] | 167 | above the IC50 for preventing foci formation as well as above the IC50 for preventing abnormal splicing events
5 | Clear solution | ≥ 1000 | 7.62 |  |  |  | CN(C)CCOCCNC(=O)c1nc(NC(=O)c2cc(NC(=O)CCNC(=O)c3nc(NC(=O)CCCNC(=O)c4cc(NC(=O)c5nc(NC(=O)CCNC(=O)c6cc(NC(=O)c7nccn7C)cn6C)cn5C)cn4C)cn3C)cn2C)cn1C [Compound 205] | 65 | 
6 | Clear solution | ≥ 3780 | 2.32 |  |  | 6.73 | Cn1cc(NC(=O)c2nc(NC(=O)CCNC(=O)c3cc(NC(=O)c4nccn4C)cn3C)cn2C)cc1C(=O)NCCCC(=O)Nc1cn(C)c(C(=O)NCCC(=O)Nc2cc(C(=O)Nc3cn(C)c(C(=O)NCCC(=O)N4CCC(C5CNC5)CC4)n3)n(C)c2)n1 [Compound 204] | 518 | 
7 | Clear solution | ≥ 10000 | 2.16 |  |  |  | CCCCn1cc(NC(=O)c2nc(NC(=O)CCNC(=O)c3cc(NC(=O)c4nccn4C)cn3C)cn2C)cc1C(=O)NCC[C@@H](N)C(=O)Nc1cn(C)c(C(=O)NCCC(=O)Nc2cc(C(=O)Nc3cn(C)c(C(=O)NCCC(=O)N4CCN(C)CC4)n3)n(C)c2)n1 [Compound 214] | 237 | 
8 | Clear solution | ≥ 3210 | 6.64 | 50 | BQL |  | Cn1cc(NC(=O)c2nc(NC(=O)CCNC(=O)c3cc(NC(=O)c4nccn4C)cn3C)cn2C)cc1C(=O)NCCCC(=O)Nc1cn(C)c(C(=O)NCCC(=O)Nc2cc(C(=O)Nc3cn(C)c(C(=O)NCCC(=O)N4CCC(N5CCNCC5)CC4)n3)n(C)c2)n1 [Compound 213] | 892 | 
9 | Clear solution | ≥ 3180 | 8.04 |  |  |  | CN1CC(C2CCN(C(=O)CCNC(=O)c3nc(NC(=O)c4cc(NC(=O)CCNC(=O)c5nc(NC(=O)CCCNC(=O)c6cc(NC(=O)c7nc(NC(=O)CCNC(=O)c8cc(NC(=O)c9nccn9C)cn8C)cn7C)cn6C)cn5C)cn4C)cn3C)CC2)C1 [Compound 203] | 384 | 
10 | Clear solution | ≥ 1000 | 4.96 |  |  |  | Cn1cc(NC(=O)c2nc(NC(=O)CCNC(=O)c3cc(NC(=O)c4nccn4C)cn3C)cn2C)cc1C(=O)NCCCC(=O)Nc1cn(C)c(C(=O)NCCC(=O)Nc2cc(C(=O)Nc3cn(C)c(C(=O)NCCCN4CCOCC4)n3)n(C)c2)n1 [Compound 206] | 172 | 
11 | Clear solution | ≥ 3530 | 2.75 |  |  | 6.07 | Cn1cc(NC(=O)c2nc(NC(=O)CCNC(=O)c3cc(NC(=O)c4nccn4C)cn3C)cn2C)cc1C(=O)NCCCC(=O)Nc1cn(C)c(C(=O)NCCC(=O)Nc2cc(C(=O)Nc3cn(C)c(C(=O)NCCC(=O)N4CCC5(CC4)CNC5)n3)n(C)c2)n1 [Compound 208] | 186 | 
12 | Clear solution | ≥ 4030 | 3.10 |  |  | 6.24 | CN1CC2(CCN(C(=O)CCNC(=O)c3nc(NC(=O)c4cc(NC(=O)CCNC(=O)c5nc(NC(=O)CCCNC(=O)c6cc(NC(=O)c7nc(NC(=O)CCNC(=O)c8cc(NC(=O)c9nccn9C)cn8C)cn7C)cn6C)cn5C)cn4C)cn3C)CC2)C1 [Compound 202] | 213 | 
13 | Clear solution | ≥ 10000 |  |  |  |  | Cn1cc(NC(=O)c2nc(NC(=O)CCNC(=O)c3cc(NC(=O)c4nccn4C)cn3C)cn2C)cc1C(=O)NCCCC(=O)Nc1cn(C)c(C(=O)NCCC(=O)Nc2cc(C(=O)Nc3cn(C)c(C(=O)NCCC(=O)N4CCC(C#CC#CC5CCNCC5)CC4)n3)n(C)c2)n1 [Compound 207] | 33 | 
14 | Clear solution | ≥ 10000 | 1.97 |  |  |  | COCCOCCOCCOCCOCCOCCOc1ccc(C#CCNCCCNC(=O)c2nc(NC(=O)c3cc(NC(=O)CCNC(=O)c4nc(NC(=O)CCCNC(=O)c5cc(NC(=O)c6nc(NC(=O)CCNC(=O)c7cc(NC(=O)c8nccn8C)cn7C)cn6C)cn5C)cn4C)cn3C)cn2C)cc1 [Compound 212] | 378 | 
